# Laboratory results taken from US10039715B2, “Liposomal formulation of nonglycosidic ceramides and uses thereof” (LUDWIG INSTITUTE FOR CANCER RESEARCH LTD., priority 2010, dated 2018).
# Tests used:
# [1] = system: dendritic cell (DC); test: DC maturation in vivo, CD86 and CD40 expression on spleen DC by flow cytometry; parameters: species or system mice; conditions: median fluorescent intensity, spleen DC 18 hours after 1 μg intravenous injection
# Description: (§1) This example illustrates the in vivo effect of threitolceramide-containing liposomes on dendritic cell (DC) maturation, as measured by CD86 and CD40 expression, and iNKT cell activation, as measured by IL-4 and IFNγ release.
# (§2) WT (n=3) and CD1d^−/− (n=1) mice were administered 1 μg of liposomes (EPC:DDAB:TC(10); EPC:EPG:TC(2); EPC:EPG:TC(5); EPC:EPG:TC(10) and EPC:CHOL:TC(10)) or control liposome (EPC:EPG), soluble threitolceramide or soluble α-GalCer by intravenous injection.
# 18 hours post-injection, the spleens of the mice were harvested and the phenotype of DC maturation was examined by flow cytometry as determined by the median fluorescent intensity (MFI) of CD86 and CD40 expression.
# [2] = system: murine invariant natural killer cells (iNKT); test: Activation of iNKT cells in splenocyte culture, IFNγ ELISA; type: cell-based, mice; conditions: splenocytes cultured 72 hours with material (titrating amounts 10 μg/ml, 1 μg/ml, 100 ng/ml; concentration of the tabulated values not stated), supernatant ELISA
# Description: This Example illustrates ability of the threitolceramide-containing liposomes to activate murine invariant natural killer cells (iNKT) and human cells, as measured by IFNγ release.
# Splenocytes were prepared from either wild type (WT) or CD1d^−/− (NKT cell deficient) mice and cultured in the presence of titrating amounts (10 μg/ml, 1 μg/ml, 100 ng/ml) of non-glycosidic ceramide containing liposomes (EPC:DDAB:TC(10); EPC:EPG:TC(2); EPC:EPG:TC(5); EPC:EPG:TC(10) and EPC:CHOL:TC(10)), control liposome (EPC:EPG), soluble threitolceramide or soluble α-GalCer for 72 hours. Soluble threitolceramide and soluble α-GalCer were prepared by dissolution in a chloroform/methanol/water solution (10:10:3) at 10 mg/mL. The resulting solution was diluted to a final volume of about 200 μg/mL using vehicle solution comprised of NaCl (about 150 mM) and polyoxyethylene (20) sorbitan monolaurate (i.e., Tween 20, 0.5%). Supernatants were removed from cultures and the amount of IFNγ produced by the cells was quantified by ELISA. Briefly, ELISA plates were coated with 1D1K antibody (Mabtech) and left overnight at 4° C. The plates were washed with 0.05% Tween 20 in PBS (v/v). To eliminate any non-specific antigen binding, the plates were coated (i.e. blocked) with 200 μL of 10% FCS in PBS (v/v) and incubated for 2 h at 37° C. […]
# [3] = system: iNKT cell; test: Activation of NKT cells in vivo, serum IL-4 and IFN-γ by ELISA; parameters: species or system mice; conditions: 1 μg intravenous injection; for IL-4 (serum): 2 hours; for INFγ (serum): 18 hours
# Description: as §1, §2
# Serums were obtained by tail venipuncture 2 and 18 hours post-injection to detect IL-4 and IFN-γ levels by ELISA.
SMILES,CD40 (DC maturation) Median [1],CD86 (DC maturation) Median [1],IFNγ [2] [ng/mL],IL-4 (serum) [3] [ng/mL],INFγ (serum) [3] [ng/mL]
"CCCCCCCCCCCCCCCCCCCCCCCCCC(=O)N[C@@H](CO[C@H]1O[C@H](CO)[C@H](O)[C@H](O)[C@H]1O)[C@H](O)[C@H](O)CCCCCCCCCCCCCC [Soluble α-GalCer, α-Galactosylceramide]",39.1,91.6,9.21,0.83,8.47
"CCCCCCCCCCCCCCCCCCCCCCCCCC(=O)N[C@@H](COC[C@H](O)[C@@H](O)CO)[C@H](O)[C@H](O)CCCCCCCCCCCCCC [Soluble TC, threitolceramide]",28.9,60.1,3.77,0.12,0.99
